Reference: patent US7538085B2, “Peptide deformylase inhibitors as novel antibiotics” (The Ohio State University Research Foundation, priority 2003, dated 2009)
Converted amounts (≈) assume the structure as drawn. “And” between values parts separate entries of the source, which are not always exact repeats. Equal values may be shown once. Read-outs that look alike come from different tables or passages of the source.

Tests used:
[1] = biological target: T1, Co(II)-substituted E. coli PDF (Escherichia coli, UniProt P0A6K3); assay: PDF assay coupled to formate dehydrogenase; assay type: biochemical
T1 construct: made in house
T1 sequence (P0A6K3 whole entry): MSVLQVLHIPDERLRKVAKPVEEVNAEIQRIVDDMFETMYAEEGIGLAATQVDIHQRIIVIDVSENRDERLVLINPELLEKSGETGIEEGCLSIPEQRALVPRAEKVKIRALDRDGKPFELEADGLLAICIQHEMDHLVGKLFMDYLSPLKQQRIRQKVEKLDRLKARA

E. coli = assay: Antibacterial activity (cell growth, MIC); assay type: cell-based; settings: Escherichia coli
Protocol: (§1) FIG. 5 Inhibition of B. subtilis (A) and E. coli (B) cell growth by inhibitor 2. An overnight culture was diluted 1000-fold into 2 mL of fresh LB medium containing the specified concentrations of inhibitor 2 and incubated at 37° C. Cell densities were measured at the specified times on a UV-vis spectrophotometer.
(§2) The in vitro antibacterial activity of the cyclic inhibitor was tested against E. coli and Bacillus subtilis, the representative Gram-negative and Gram-positive bacteria, respectively.
(§3) Antimicrobial Susceptibility Testing. For Escherichia coli and Bacillus subtilis, cell growth was monitored on the Lambda-20 UV/Vis spectrophotometer at 600 nm. A single bacterial colony from a plate culture was grown overnight in LB media and was diluted 1000-fold into 2 mL of fresh growth medium containing 0-64 μg/mL of test agent in a 5-mL glass test tube shaken at a speed of 250 rpm. Cell growth (at 37° C.) was monitored for 0-600 min.
(§4) Antibacterial Activity of PDF Inhibitors Inhibitors 2-7E were tested against two or more bacterial strains for antibacterial activities.

B. subtilis = assay: Antibacterial activity (cell growth, MIC); assay type: cell-based; settings: Bacillus subtilis
Protocol: as §1, §2, §3, §4

[2] = tested on: human matrix metalloproteases; assay: Inhibition of human matrix metalloproteases, overall statement; assay type: biochemical; settings: MMP-1, MMP2, MMP-3, MMP-9; 1.0 and 10 μM
Protocol: Inhibition of Metalloproteases (MMP) Several of the inhibitors were tested for inhibition of human matrix metalloproteases, which are often used as indicators of inhibitor selectivity (no inhibition of MMP is desired). Each inhibitor was tested at two different concentrations (1.0 and 10 μM). The values reported are the percentage of MMP activity remaining in the presence of added inhibitor. […] The acyclic inhibitors are flexible and can adopt different conformations to fit the active sites of both PDF and MMP's.

MMP-1 = biological target: T2, MMP-1 (Homo sapiens, UniProt P03956); assay: Inhibition of human matrix metalloproteases; assay type: biochemical; settings: read-out: percentage of MMP-1 activity remaining; for remaining activity at 1 µM: inhibitor 1.0 μM; for remaining activity at 10 µM: inhibitor 10 μM
T2 sequence (P03956 100-469): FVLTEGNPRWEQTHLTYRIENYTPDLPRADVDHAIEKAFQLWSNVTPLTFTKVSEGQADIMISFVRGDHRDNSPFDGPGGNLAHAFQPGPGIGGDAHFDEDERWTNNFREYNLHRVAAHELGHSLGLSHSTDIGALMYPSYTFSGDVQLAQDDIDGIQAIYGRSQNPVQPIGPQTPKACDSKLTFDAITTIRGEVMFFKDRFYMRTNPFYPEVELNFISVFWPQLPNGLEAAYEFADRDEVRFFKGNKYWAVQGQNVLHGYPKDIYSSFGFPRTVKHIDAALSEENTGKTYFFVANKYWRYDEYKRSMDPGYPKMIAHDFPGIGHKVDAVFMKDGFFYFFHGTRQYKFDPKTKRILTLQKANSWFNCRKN
Protocol: (§5) Inhibition of Metalloproteases (MMP) Several of the inhibitors were tested for inhibition of human matrix metalloproteases, which are often used as indicators of inhibitor selectivity (no inhibition of MMP is desired). Each inhibitor was tested at two different concentrations (1.0 and 10 μM). The values reported are the percentage of MMP activity remaining in the presence of added inhibitor.

MMP-9 = MMP-9 (Homo sapiens, UniProt P14780); assay: Inhibition of human matrix metalloproteases; assay type: biochemical; settings: read-out: percentage of MMP-9 activity remaining; for remaining activity at 1 µM: inhibitor 1.0 μM; for remaining activity at 10 µM: inhibitor 10 μM
Chain of MMP-9 (P14780 94-707): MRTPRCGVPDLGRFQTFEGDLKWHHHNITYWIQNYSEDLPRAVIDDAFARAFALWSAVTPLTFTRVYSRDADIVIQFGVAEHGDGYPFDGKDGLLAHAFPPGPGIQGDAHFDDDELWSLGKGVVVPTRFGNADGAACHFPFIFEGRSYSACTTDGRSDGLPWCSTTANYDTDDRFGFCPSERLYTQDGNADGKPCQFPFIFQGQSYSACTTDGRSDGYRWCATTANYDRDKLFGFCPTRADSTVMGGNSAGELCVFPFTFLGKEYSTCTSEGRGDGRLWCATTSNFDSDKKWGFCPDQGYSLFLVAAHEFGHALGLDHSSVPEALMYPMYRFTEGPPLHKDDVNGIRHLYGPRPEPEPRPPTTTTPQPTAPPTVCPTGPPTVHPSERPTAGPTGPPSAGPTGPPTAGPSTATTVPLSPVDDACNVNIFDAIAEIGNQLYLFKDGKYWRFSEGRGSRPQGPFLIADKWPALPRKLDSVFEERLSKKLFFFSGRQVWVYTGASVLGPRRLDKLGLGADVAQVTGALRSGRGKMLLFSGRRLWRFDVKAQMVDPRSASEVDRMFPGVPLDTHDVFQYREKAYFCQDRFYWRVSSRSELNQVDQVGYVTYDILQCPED
Protocol: as §5

MMP-3 = MMP-3 (Homo sapiens, UniProt P08254); assay: Inhibition of human matrix metalloproteases; assay type: biochemical; settings: read-out: percentage of MMP-3 activity remaining; for remaining activity at 1 µM: inhibitor 1.0 μM; for remaining activity at 10 µM: inhibitor 10 μM
Chain of MMP-3 (P08254 100-477): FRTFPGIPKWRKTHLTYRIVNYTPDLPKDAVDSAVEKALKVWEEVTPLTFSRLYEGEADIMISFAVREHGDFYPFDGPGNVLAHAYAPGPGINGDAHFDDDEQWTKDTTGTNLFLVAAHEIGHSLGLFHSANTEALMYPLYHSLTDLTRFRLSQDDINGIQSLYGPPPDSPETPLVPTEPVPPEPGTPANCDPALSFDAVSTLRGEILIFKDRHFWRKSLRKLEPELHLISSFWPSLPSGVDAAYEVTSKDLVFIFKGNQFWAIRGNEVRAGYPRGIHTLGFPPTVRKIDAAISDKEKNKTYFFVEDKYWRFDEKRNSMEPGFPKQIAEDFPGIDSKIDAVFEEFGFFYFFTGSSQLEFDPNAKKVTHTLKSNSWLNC
Protocol: as §5

MMP2 = biological target: T3, MMP2 (Homo sapiens, UniProt P08253); assay: Inhibition of human matrix metalloproteases; assay type: biochemical; settings: read-out: percentage of MMP2 activity remaining; for remaining activity at 1 µM: inhibitor 1.0 μM; for remaining activity at 10 µM: inhibitor 10 μM
T3 sequence (P08253 110-660): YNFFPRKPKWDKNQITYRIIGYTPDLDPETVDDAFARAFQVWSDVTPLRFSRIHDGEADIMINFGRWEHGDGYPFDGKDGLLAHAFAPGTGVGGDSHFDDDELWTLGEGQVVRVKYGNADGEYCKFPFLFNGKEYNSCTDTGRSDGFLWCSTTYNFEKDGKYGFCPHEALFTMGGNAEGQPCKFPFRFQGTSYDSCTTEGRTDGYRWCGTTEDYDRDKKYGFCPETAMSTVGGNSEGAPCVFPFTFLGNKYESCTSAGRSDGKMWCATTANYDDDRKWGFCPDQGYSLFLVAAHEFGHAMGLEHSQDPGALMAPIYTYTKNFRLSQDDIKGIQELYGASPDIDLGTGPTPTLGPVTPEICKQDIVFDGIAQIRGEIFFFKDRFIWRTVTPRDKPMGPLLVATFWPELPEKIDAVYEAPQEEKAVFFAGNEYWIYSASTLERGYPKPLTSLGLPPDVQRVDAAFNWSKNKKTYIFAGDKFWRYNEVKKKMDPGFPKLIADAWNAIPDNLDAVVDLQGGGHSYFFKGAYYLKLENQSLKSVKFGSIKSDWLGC
Protocol: as §5

[3] = Stability of inhibitors in rat plasma; assay type: in vitro ADME; settings: 37° C., LC-MS
Protocol: FIG. 7 Comparison of the in vitro stability of PDF inhibitors 6 (cyclic) and 9 (acyclic) in rat plasma.
Stability of Inhibitors Inhibitors 6E and comparative compound 9 were chosen to test for the effect of cyclization on inhibitor stability. They both have an L-lysine as the P2′ residue and are expected to be sensitive to proteolytic degradation by trypsin-like enzymes. Both inhibitors were incubated in rat plasma at 37° C. and aliquots were withdrawn at various times and analyzed by LC-MS. […] Our attempts to identify the degradation products by mass spectrometry failed.

E. faecalis (ATCC 29212) = assay: Antibacterial activity (MIC); assay type: cell-based; settings: Enterococcus faecalis, ATCC29212
Protocol: as §4

[4] = tested on: H. influenzae (ATCC 31517); assay: Antibacterial activity (MIC); assay type: cell-based; settings: Haemophilus influenzae, ATCC31517
Protocol: as §4

[5] = tested on: M. catarrhalis (ATCC 37054); assay: Antibacterial activity (MIC); assay type: cell-based; settings: Moraxella catarrhalis, ATCC37054
Protocol: as §4

[6] = tested on: S. pneumoniae (ATCC 49619); assay: Antibacterial activity (MIC); assay type: cell-based; settings: Streptococcus pneumoniae, ATCC49619
Protocol: as §4

[7] = tested on: S. pneumoniae (ATCC 6301); assay: Antibacterial activity (MIC); assay type: cell-based; settings: Streptococcus pneumoniae, ATCC6301
Protocol: as §4

[8] = tested on: S. pneumoniae (ATCC 6303); assay: Antibacterial activity (MIC); assay type: cell-based; settings: Streptococcus pneumoniae, ATCC6303
Protocol: as §4

S. aureus (ATCC 29213) = assay: Antibacterial activity (MIC); assay type: cell-based; settings: Staphylococcus aureus, ATCC29213
Protocol: as §4

E. coli PDF = biological target: T4, E. coli PDF (Escherichia coli, UniProt P0A6K3); assay: Aminopeptidase assay of PDF inhibition; assay type: biochemical
T4 construct: made in house
T4 sequence (P0A6K3 whole entry): as the sequence (P0A6K3 whole entry) above
Protocol: Aminopeptidase Assay of Compound 2 The inhibition constant was also determined independently using and aminopeptidase assay.^37 Assay reactions (total volume of 500 μL) containing 50 mM Hepes (pH 7.0), 150 mM NaCl, 8.0 nM E. coli PDF, and 0-50 nM inhibitor 2 were incubated on ice for 2 h. Prior to reaction initiation, the mixture was brought to room temperature for 10 min. The PDF reaction was then initiated by the addition of substrate formyl-Met-Leu-p-nitronilide (final concentration 110 μM) and allowed to proceed for 3 min at room temperature before being quenched by heating at 95° C. for 10 min (the inactivation process is usually complete within the first 30 s). After cooling to room temperature, 1.0 unit of Aeromonas aminopeptidase (AAP) was added to the solution and the mixture was incubated for 15 min at room temperature. The absorbance at 405 nm was measured on a UV-Vis spectrophotometer. […] For all end-point assay reactions, the substrate to product conversion was kept at <20%.

Compound	Ki [1]	MIC (E. coli)	MIC (B. subtilis; read-out: MIC)	inhibition of the MMPs (in words) [2]	remaining activity at 1 µM (MMP-1)	remaining activity at 10 µM (MMP-1)	remaining activity at 1 µM (MMP-9)	remaining activity at 10 µM (MMP-9)	remaining activity at 1 µM (MMP-3)	remaining activity at 10 µM (MMP-3)	remaining activity at 1 µM (MMP2)	remaining activity at 10 µM (MMP2)	degradation (loss) in rat plasma after 5 h [3]	MIC (E. faecalis (ATCC 29212))	MIC [4]	MIC [5]	MIC [6]	MIC [7]	MIC [8]	MIC (S. aureus (ATCC 29213))	other results
CC(C)(C)[C@@H]1NC(=O)[C@@H](CN(O)C=O)CCCCCCCCCCCNC1=O [Compound 4E]	0.22 nM	> 24 µg/mL	~0.2 µg/mL	–	–	–	–	–	–	–	–	–	–	–	–	–	–	–	–	–	–
CCCC[C@H](CN(O)C=O)C(=O)N[C@@H](CCCCN)C(=O)Nc1ccccc1 [Compound 10C, reference compound]	18 ± 1 nM	–	–	substantial inhibition of all of the MMP's	50%	3%	46%	11%	32%	27%	66%	45%	–	–	–	–	–	–	–	–	–
CCCCCCNC(=O)[C@H](CCCCN)NC(=O)[C@H](CCCCC)CN(O)C=O [Compound 9C, reference compound]	–	–	–	substantial inhibition of all of the MMP's	50%	0%	39%	6%	19%	1%	27%	2%	approximately 25%	–	–	–	–	–	–	–	–
NCCCC[C@@H]1NC(=O)[C@@H](CN(O)C=O)CCCCCCCCCNC1=O [Compound 6E]	3 ± 1.3 nM	4 to 8 µg/mL (≈ 10.4 to 20.8 µM)	~8 µg/mL	–	–	–	–	–	–	–	–	–	no detectable degradation	–	–	–	–	–	–	–	–
NCCCC[C@@H]1NC(=O)[C@@H](CN(O)C=O)CCCCCCCCCCCCCCNC1=O [Compound 7E]	36 ± 9 nM	> 32 µg/mL	> 32 µg/mL	–	99%	93%	96%	95%	100%	94%	94%	85%	–	32 µg/mL (≈ 70.4 µM)	32 µg/mL (≈ 70.4 µM)	1 µg/mL (≈ 2.2 µM)	> 32 µg/mL	> 32 µg/mL	> 32 µg/mL	32 µg/mL (≈ 70.4 µM)	–
CC(C)(C)C1NC(=O)C(CN(O)C=O)CCCCCCCCCNC1=O (stereo not drawn) [Compound 2, N-(3-tert-Butyl-2,5-dioxo-1,4-diaza-cyclopentadec-6-ylmethyl)-N-hydroxy-formamide]	0.67 ± 0.2 nM	~32 µM and ~12 µg/mL	0.7 to 1.4 µg/mL	–	93%	86%	95%	91%	97%	91%	96%	92%	–	> 32 µg/mL	0.5 µg/mL (≈ 1.35 µM)	0.62 µg/mL (≈ 1.68 µM)	4 µg/mL (≈ 10.8 µM)	4 µg/mL (≈ 10.8 µM)	2 µg/mL (≈ 5.41 µM)	16 µg/mL (≈ 43.3 µM)	Ki (E. coli PDF): 0.33 ± 0.15 nM; fold more potent against PDF than the acyclic parent/counterpart ([1]; cyclic versus acyclic inhibitor): ~10 fold; MIC (B. subtilis; read-out: minimal inhibitory concentration (MIC)): 2 to 4 µM
